From US20210395256A1, “TYROSINE KINASE INHIBITORS, COMPOSITIONS AND METHODS THERE OF” (Betta Pharmaceuticals Co., Ltd., priority 2018, published 2021)

Biological target: TrkA kinase (Homo sapiens, UniProt P04629)
Test: TrkA kinase assay (mobility shift assay)
Format: biochemical
Conditions: class symbols; read-out: Trk A Kinase IC50
Protocol: Example 201 TrkA Kinase Assay
Mobility shift assay was used to determine the inhibitory activity of compounds against TrkA kinase. Assay procedures are as follows:
1× Kinase base buffer (50 mM HEPES, pH 7.5; 0.0015% Brij-35)
Stop buffer (100 mM HEPES, pH 7.5; 0.015% Brij-35; 0.2% Coating Reagent #3; 50 mM EDTA)
1) Dilute the compound to 50× of the final desired highest inhibitor concentration in reaction by 100% DMSO. Transfer 100 μl of this compound dilution to a well in a 96-well plate.
2) For all compounds, transfer the compound in tubes to one well on 96-well storage plate and serially dilute the compound by transferring 30 μl to 60 μl of 100% DMSO in the next well and so forth for a total of 10 concentrations.
3) Add 100 μl of 100% DMSO to two empty wells for no compound control and no enzyme control in the same 96-well plate. Mark the plate as source plate.
4) Prepare intermediate plate
Transfer 10 μl of compound from source plate to a new 96-well plate as the intermediate plate
Add 90 µl of 1× kinase buffer to each well of the intermediate plate.
Mix the compounds in intermediate plate for 10 min on shaker.
1) Transfer 5 μl of each well from the 96-well intermediate plate to a 384-well plate in duplicates. For example, A1 of the 96-well plate is transferred to A1 and A2 of the 384-well plate. A2 of the 96-well plate is transferred to A3 and A4 of the 384-well plate, and so on.
1) Prepare 2.5× enzyme solution
Add kinase in 1× kinase base buffer.
2) Prepare 2.5× peptide solution Add FAM-labeled peptide and ATP in the 1× kinase base buffer.
3) Assay plate already contains 5 μl of compound in 10% DMSO.
4) Transfer 2.5× enzyme solution to the assay plate
Add 10 μl of 2.5× enzyme solution to each well of the 384-well assay plate.
5) Incubate at room temperature for 10 min.
6) Transfer 2.5× peptide solution to the assay plate
Add 10 μl of 2.5× peptide solution to each well of the 384-well assay plate.
Kinase reaction conditions are shown as Table 11:
7) Kinase reaction and stop
Incubate at 28° C. for specified period of time.
Add 25 μl of stop buffer to stop reaction.
1) Copy conversion data from Caliper program.
2) Convert conversion values to inhibition values.
Percent inhibition=(max-conversion)/(max-min)*100.
“max” stands for DMSO control; “min” stands for low control.
3) Fit the data in XLFit excel add-in version 5.4.0.8 to obtain IC50 values.
Equation used is: Y=Bottom+(Top-Bottom)/(1+(IC50/X)^HillSlope)

TrkA kinase, sequence (P04629 33-796): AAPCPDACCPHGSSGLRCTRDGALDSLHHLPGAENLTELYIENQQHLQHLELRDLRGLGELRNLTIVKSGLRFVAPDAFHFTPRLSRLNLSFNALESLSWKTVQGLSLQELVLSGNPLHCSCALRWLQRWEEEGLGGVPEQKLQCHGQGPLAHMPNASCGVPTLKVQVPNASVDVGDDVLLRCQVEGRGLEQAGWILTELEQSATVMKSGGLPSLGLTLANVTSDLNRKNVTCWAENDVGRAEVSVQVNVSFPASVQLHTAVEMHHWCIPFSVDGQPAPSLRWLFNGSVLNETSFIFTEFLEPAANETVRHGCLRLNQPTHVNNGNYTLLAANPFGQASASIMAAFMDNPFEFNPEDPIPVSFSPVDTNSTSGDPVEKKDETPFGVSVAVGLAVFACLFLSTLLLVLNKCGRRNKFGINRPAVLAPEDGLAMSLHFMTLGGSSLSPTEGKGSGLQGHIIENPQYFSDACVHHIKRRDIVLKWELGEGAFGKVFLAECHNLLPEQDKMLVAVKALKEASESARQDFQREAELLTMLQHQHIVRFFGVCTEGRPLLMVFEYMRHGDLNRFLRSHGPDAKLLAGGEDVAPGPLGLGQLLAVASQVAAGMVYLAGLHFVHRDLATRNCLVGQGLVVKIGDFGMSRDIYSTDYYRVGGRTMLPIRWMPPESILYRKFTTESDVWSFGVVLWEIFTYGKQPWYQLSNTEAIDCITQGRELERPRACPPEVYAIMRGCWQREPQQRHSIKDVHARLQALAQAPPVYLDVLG

`Fc1ccc(F)c([C@H]2CCCN2c2ccn3ncc(-c4nnc(-c5ccc(N6CCOCC6)cc5)[nH]4)c3n2)c1` [Compound 1, (R)-4-(4-(5-(5-(2-(2,5-difluorophenyl)pyrrolidin-1-yl)pyrazolo[1,5-a]pyrimidin-3-yl)-4H-1,2,4-triazol-3-yl)phenyl)morpholine] and `Fc1ccc(F)c([C@H]2CCCN2c2ccn3ncc(-c4nnc(-c5ccnc(N6CCOCC6)c5)[nH]4)c3n2)c1` [Compound 6, (R)-4-(4-(5-(5-(2-(2,5-difluorophenyl)pyrrolidin-1-yl)pyrazolo[1,5-a]pyrimidin-3-yl)-4H-1,2,4-triazol-3-yl)pyridin-2-yl)morpholine] cannot be ordered by IC50: ≤ 10 nM for the first, ≤ 10 nM for the second.

`Fc1ccc(F)c([C@H]2CCCN2c2ccn3ncc(-c4nnc(C5CCOC5)[nH]4)c3n2)c1` (stereo partly drawn) [Compound 3, 5-((R)-2-(2,5-difluorophenyl)pyrrolidin-1-yl)-3-(5-(tetrahydrofuran-3-yl)-4H-1,2,4-triazol-3-yl)pyrazolo[1,5-a]pyrimidine] and `Fc1ccc(F)c([C@H]2CCCN2c2ccn3ncc(-c4nnc(C5CCOCC5)[nH]4)c3n2)c1` [Compound 32, (R)-5-(2-(2,5-difluorophenyl)pyrrolidin-1-yl)-3-(5-(tetrahydro-2H-pyran-4-yl)-4H-1,2,4-triazol-3-yl)pyrazolo[1,5-a]pyrimidine] fall in the same range of IC50: 10 to 50 nM for the first, 10 to 50 nM for the second.

Compared with `Fc1ccc(F)c([C@H]2CCCN2c2ccn3ncc(-c4nnc(C5CCN5)[nH]4)c3n2)c1` (stereo partly drawn) [Compound 15, 3-(5-(azetidin-2-yl)-4H-1,2,4-triazol-3-yl)-5-((R)-2-(2,5-difluorophenyl)pyrrolidin-1-yl)pyrazolo[1,5-a]pyrimidine], `OC1CCNC(c2nnc(-c3cnn4ccc(N5CCC[C@@H]5c5cc(F)ccc5F)nc34)[nH]2)C1` (stereo partly drawn) [Compound 35, 2-(5-(5-((R)-2-(2,5-difluorophenyl)pyrrolidin-1-yl)pyrazolo[1,5-a]pyrimidin-3-yl)-4H-1,2,4-triazol-3-yl)piperidin-4-ol] is lower in IC50: > 50 nM for the first, 10 to 50 nM for the second.

`OC1CC[C@H](c2nnc(-c3cnn4ccc(N5CCC[C@@H]5c5cc(F)ccc5F)nc34)[nH]2)C1` (stereo partly drawn) [Compound 19, (3S)-3-(5-(5-((R)-2-(2,5-difluorophenyl)pyrrolidin-1-yl)pyrazolo[1,5-a]pyrimidin-3-yl)-4H-1,2,4-triazol-3-yl)cyclopentan-1-ol] and `C[C@](O)(c1nnc(-c2cnn3ccc(N4CCC[C@@H]4c4cc(F)ccc4F)nc23)[nH]1)C(F)(F)F` [Compound 25, (S)-2-(5-(5-((R)-2-(2,5-difluorophenyl)pyrrolidin-1-yl)pyrazolo[1,5-a]pyrimidin-3-yl)-4H-1,2,4-triazol-3-yl)-1,1,1-trifluoropropan-2-ol] cannot be ordered by IC50: ≤ 10 nM for the first, 10 to 50 nM for the second.

`Cn1c(-c2ccnc(N3CCC(O)CC3)c2)nnc1-c1cnn2ccc(N3CCC[C@@H]3c3cc(F)ccc3F)nc12` [Compound 21, (R)-1-(4-(5-(5-(2-(2,5-difluorophenyl)pyrrolidin-1-yl)pyrazolo[1,5-a]pyrimidin-3-yl)-4-methyl-4H-1,2,4-triazol-3-yl)pyridin-2-yl)piperidin-4-ol] and `CCC(O)(c1nnc(-c2cnn3ccc(N4CCC[C@@H]4c4cc(F)ccc4F)nc23)[nH]1)C(F)(F)F` (stereo partly drawn) [Compound 28, 2-(5-(5-((R)-2-(2,5-difluorophenyl)pyrrolidin-1-yl)pyrazolo[1,5-a]pyrimidin-3-yl)-4H-1,2,4-triazol-3-yl)-1,1,1-trifluorobutan-2-ol] cannot be ordered by IC50: > 50 nM for the first, > 50 nM for the second.

In the case of `OC(c1nnc(-c2cnn3ccc(N4CCC[C@@H]4c4cc(F)ccc4F)nc23)[nH]1)(C(F)(F)F)C(F)(F)F` [Compound 27, (R)-2-(5-(5-(2-(2,5-difluorophenyl)pyrrolidin-1-yl)pyrazolo[1,5-a]pyrimidin-3-yl)-4H-1,2,4-triazol-3-yl)-1,1,1,3,3,3-hexafluoropropan-2-ol], the IC50 is reported as > 50 nM.

Same assay, conditions: numeric values; read-out: Trk A Kinase IC50

Point of comparison: `O[C@H](c1ccccc1)c1nnc(-c2cnn3ccc(N4CCC[C@@H]4c4cc(F)ccc4F)nc23)[nH]1` [Compound 42, (R)-(5-(5-((R)-2-(2,5-difluorophenyl)pyrrolidin-1-yl)pyrazolo[1,5-a]pyrimidin-3-yl)-4H-1,2,4-triazol-3-yl)(phenyl)methanol], IC50 3.9 nM. Against it:
- OC1CCN(c2cc(-c3nnc(-c4cnn5ccc(N6CCC[C@@H]6c6cc(F)ccc6F)nc45)[nH]3)ccn2)CC1 [Compound 2, (R)-1-(4-(5-(5-(2-(2,5-difluorophenyl)pyrrolidin-1-yl)pyrazolo[1,5-a]pyrimidin-3-yl)-4H-1,2,4-triazol-3-yl)pyridin-2-yl)piperidin-4-ol] — 9.1-fold lower, 0.43 nM
- O[C@H]1CC[C@@H](c2nnc(-c3cnn4ccc(N5CCC[C@@H]5c5cc(F)ccc5F)nc34)[nH]2)CC1 [Compound 5, (1S,4s)-4-(5-(5-((R)-2-(2,5-difluorophenyl)pyrrolidin-1-yl)pyrazolo[1,5-a]pyrimidin-3-yl)-4H-1,2,4-triazol-3-yl)cyclohexan-1-ol] — 2.2-fold lower, 1.8 nM
- CC(C)(C)OC(=O)N1CCC1c1nnc(-c2cnn3ccc(N4CCC[C@@H]4c4cc(F)ccc4F)nc23)[nH]1 (stereo partly drawn) [Compound 20, tert-butyl 2-(5-(5-((R)-2-(2,5-difluorophenyl)pyrrolidin-1-yl)pyrazolo[1,5-a]pyrimidin-3-yl)-4H-1,2,4-triazol-3-yl)azetidine-1-carboxylate] — 12-fold higher, 47 nM
- CC(O)(Cc1nnc(-c2cnn3ccc(N4CCC[C@@H]4c4cc(F)ccc4F)nc23)[nH]1)C(F)(F)F (stereo partly drawn) [Compound 29, 3-(5-(5-((R)-2-(2,5-difluorophenyl)pyrrolidin-1-yl)pyrazolo[1,5-a]pyrimidin-3-yl)-4H-1,2,4-triazol-3-yl)-1,1,1-trifluoro-2-methylpropan-2-ol] — 2.8-fold lower, 1.4 nM
- CC(C)(CO)c1nnc(-c2cnn3ccc(N4CCC[C@@H]4c4cc(F)ccc4F)nc23)[nH]1 [Compound 33, (R)-2-(5-(5-(2-(2,5-difluorophenyl)pyrrolidin-1-yl)pyrazolo[1,5-a]pyrimidin-3-yl)-4H-1,2,4-triazol-3-yl)-2-methylpropan-1-ol] — 1.6-fold lower, 2.41 nM
- OC12CC3CC(C1)CC(c1nnc(-c4cnn5ccc(N6CCC[C@@H]6c6cc(F)ccc6F)nc45)[nH]1)(C3)C2 [Compound 37, (1R,3r)-3-(5-(5-((R)-2-(2,5-difluorophenyl)pyrrolidin-1-yl)pyrazolo[1,5-a]pyrimidin-3-yl)-4H-1,2,4-triazol-3-yl)adamantan-1-ol] — 2.5-fold lower, 1.57 nM
- CN1CCC(c2nnc(-c3cnn4ccc(N5CCC[C@@H]5c5cc(F)ccc5F)nc34)[nH]2)CC1 [Compound 38, (R)-5-(2-(2,5-difluorophenyl)pyrrolidin-1-yl)-3-(5-(1-methylpiperidin-4-yl)-4H-1,2,4-triazol-3-yl)pyrazolo[1,5-a]pyrimidine] — 3-fold higher, 11.7 nM
- Fc1ccc(F)c([C@H]2CCCN2c2ccn3ncc(-c4nnc(C5CCC(F)(F)CC5)[nH]4)c3n2)c1 [Compound 41, (R)-3-(5-(4,4-difluorocyclohexyl)-4H-1,2,4-triazol-3-yl)-5-(2-(2,5-difluorophenyl)pyrrolidin-1-yl)pyrazolo[1,5-a]pyrimidine] — within 1.5-fold, 3.92 nM
- OCC12CC(c3nnc(-c4cnn5ccc(N6CCC[C@@H]6c6cc(F)ccc6F)nc45)[nH]3)(C1)C2 [Compound 43, (R)-(3-(5-(5-(2-(2,5-difluorophenyl)pyrrolidin-1-yl)pyrazolo[1,5-a]pyrimidin-3-yl)-4H-1,2,4-triazol-3-yl)bicyclo[1.1.1]pentan-1-yl)methanol] — 1.6-fold lower, 2.51 nM
- NC12CC(c3nnc(-c4cnn5ccc(N6CCC[C@@H]6c6cc(F)ccc6F)nc45)[nH]3)(C1)C2 [Compound 44, (R)-3-(5-(5-(2-(2,5-difluorophenyl)pyrrolidin-1-yl)pyrazolo[1,5-a]pyrimidin-3-yl)-4H-1,2,4-triazol-3-yl)bicyclo[1.1.1]pentan-1-amine] — within 1.5-fold, 5.28 nM
- OB1OCc2ccc(-c3nnc(-c4cnn5ccc(N6CCC[C@@H]6c6cc(F)ccc6F)nc45)[nH]3)cc21 [Compound 45, (R)-6-(5-(5-(2-(2,5-difluorophenyl)pyrrolidin-1-yl)pyrazolo[1,5-a]pyrimidin-3-yl)-4H-1,2,4-triazol-3-yl)benzo[c][1,2]oxaborol-1(3H)-ol] — 4.9-fold lower, 0.8 nM
- CCC(O)C(F)(F)c1nnc(-c2cnn3ccc(N4CCC[C@@H]4c4cc(F)ccc4F)nc23)[nH]1 (stereo partly drawn) [Compound 46, 1-(5-(5-((R)-2-(2,5-difluorophenyl)pyrrolidin-1-yl)pyrazolo[1,5-a]pyrimidin-3-yl)-4H-1,2,4-triazol-3-yl)-1,1-difluorobutan-2-ol] — 1.9-fold lower, 2.02 nM
